Measured values as given in patent publication US11478469B2, “Combination product of BCL-2 inhibitor and MDM2 inhibitor and use thereof in the prevention and/or treatment of diseases” (ASCENTAGE PHARMA (SUZHOU) CO., LTD., priority 2018, dated 2022).

Assays:
[1] = test system: MOLM-13-Luc systemic human AML; assay: Systemic MOLM-13-Luc human AML xenograft model in NOD SCID mice; assay type: in vivo, mouse; conditions: compound 6 100 mg/kg qd×21 d; APG-115 100 mg/kg daily for seven days
Description: (1) The combined benefits of APG-115 and compound 6 for the therapy of AML was further evaluated in a difficult-to-treat disseminated MOLM-13-Luc systemic human AML model.
The MOLM-13-Luc tumor cells were maintained in vitro as suspension culture in RPMI 1640 medium supplemented with 10% heat inactivated fetal bovine serum (Gibco product), 100 U/mL penicillin and 100 μg/mL streptomycin, at 37° C. in an atmosphere of 5% CO2 in air. The tumor cells were routinely subcultured twice weekly. The cells growing in an exponential growth phase were harvested and counted for tumor inoculation.
The female NOD SCID mice were pre-treated with 2 times of 150 mg/kg cyclophosphamide, QD, at 24 hours before cell inoculation. Each mouse was inoculated with MOLM-13-Luc tumor cells (2×10^6/mouse) in 0.2 mL of PBS via tail vein for tumor development.
Animals were selected for grouping on day 3 after tumor implantation when the average bioluminescence measurement reached 3.18×107 photons/sec. A high dose pulse regimen (i.e. 100 mg/kg daily for seven days) was applied for APG-115 in this study.

[2] = test system: OCI-AML-3 (acute myeloid leukemia (AML)); assay: CellTiter-Glo (CTG) cell proliferation assay, OCI-AML-3; assay type: cell-based; conditions: Homo sapiens; OCI-AML-3, single agent alone, 24 hours; read-out: IC50 for inhibition of proliferation
Description: Anti-proliferative effects were tested by CellTiter-Glo® (CTG) assay. Cells were seeded in 96-well plates and treated with different concentrations of test substance for 24 hours. […] Each test dose was tested with 3 replicate wells. Usually, 9 series of doses of the test substance were selected, and added to 96-well plates, 5 μl/well. For the combination experiment, the final volume of the two test substances was 5 μl/well. Each test dose was tested with 3 replicate wells. On the same plate, 3-6 wells were selected and added with 100 μl of dilution solution as a control group, and another 3-6 wells were used as a blank control. […] After mixing on a shaker for 2 minutes, leaving at room temperature for 10 minutes, the fluorescence value was read by using a Biotek synergy HIMF plate reader. […] For the combination test, the cell viability was calculated by normalizing the average OD value of 3 duplicate wells of the single drug control. […] Cell viability (%) values of Compound 6 alone and the combination of Compound 6 and APG-115 in the following malignant tumor cells were determined in the CTG experiment: OCI-AML-3 (acute myeloid leukemia (AML)), MV-4-11 (acute myeloid leukemia (AML)), KMS-26 (multiple myeloma (MM)), KMS-11 (multiple myeloma (MM)).

With `CCN1[C@@H](C(=O)NC23CCC(C(=O)O)(CC2)CC3)[C@H](c2cccc(Cl)c2F)[C@]2(C(=O)Nc3cc(Cl)ccc32)C12CCCCC2` [APG-115] the “anti-leukemia activity / bioluminescence signals in words” value [1] was “remarkedly decreased bioluminescence signals” and the IC50 [2] was 2.37 µM.

For `O=C(NS(=O)(=O)c1ccc(NC[C@H]2COCCO2)c([N+](=O)[O-])c1)c1ccc(N2CCN(CC3=C(c4ccc(Cl)cc4)CC4(CCC4)CC3)CC2)cc1Oc1cnc2[nH]ccc2c1` [Compound 6, (S)-N-((4-(((1,4-dioxan-2-yl)methyl)amino)-3-nitrophe-nyl)sulfonyl)-2-((1H-pyrrolo[2,3-b]pyridin-5-yl)oxy)-4-(4-((6-(4-chlorophenyl)spiro[3.5]non-6-en-7-yl)meth-yl)piperazin-1-yl)benzamide], the “anti-leukemia activity / bioluminescence signals in words” value [1] was “limited anti-leukemia activity” and the IC50 [2] was 10.2 µM.
